Assay results taken from PubChem BioAssay AID256 (DTP/NCI, 2004).
Several values for one entry are separate records, joined by “and”; a condition that tells them apart may be missing. Identical values can stand only once. Toxic doses and inconclusive results are not listed.

System: CD2F1 mice, L1210 leukemia ip, survival T/C
Experiment: NCI In Vivo Anticancer Drug Screen. Data for tumor model L1210 Leukemia (intraperitoneal) in CD2F1 (CDF1) mice
Conditions: higher = longer survival
Outline: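 Each value reflects a quotient of treated over vehicle control outcomes in mice with a transplanted tumor.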

For `O=NN(CCCl)C(=O)NC1CCCCC1`, the T/C (endpoint: mean survival time, dose: 0.5 mg/kg/injection, schedule: Q03HX008 (oral), vehicle: saline) was 214 % of control, the T/C (endpoint: mean survival time, dose: 0.5 mg/kg/injection, schedule: Q03HX024 (oral), vehicle: saline) was 290 % of control and the T/C (endpoint: mean survival time, dose: 0.5 mg/kg/injection, schedule: Q03HX040 (oral), vehicle: saline) was 200 % of control. For the same compound, the T/C (endpoint: mean survival time, dose: 1.0 mg/kg/injection, schedule: Q01DX001 (ip), vehicle: saline) was 98 % of control, the T/C (endpoint: mean survival time, dose: 1.0 mg/kg/injection, schedule: Q01DX005 (ip), vehicle: saline) was 113 % of control and the T/C (endpoint: mean survival time, dose: 1.0 mg/kg/injection, schedule: Q01DX009 (ip), vehicle: saline) was 100 % of control. For the same compound, the T/C (endpoint: mean survival time, dose: 1.0 mg/kg/injection, schedule: Q03HX024 (oral), vehicle: saline) was 194 % of control, the T/C (endpoint: mean survival time, dose: 1.0 mg/kg/injection, schedule: Q03HX040 (oral), vehicle: saline) was 96 % of control and the T/C (endpoint: mean survival time, dose: 2.0 mg/kg/injection, schedule: Q03HX008 (oral), vehicle: saline) was 338 % of control. The T/C (endpoint: mean survival time, dose: 4.0 mg/kg/injection, schedule: Q01DX001 (ip), vehicle: other) was 109 % of control, the T/C (endpoint: mean survival time, dose: 4.0 mg/kg/injection, schedule: Q03HX024 (oral), vehicle: saline) was 96 % of control and the T/C (endpoint: mean survival time, dose: 8.0 mg/kg/injection, schedule: Q01DX001 (ip), vehicle: saline) was 108 % of control. For the same compound, the T/C (endpoint: mean survival time, dose: 8.0 mg/kg/injection, schedule: Q01DX001 (oral), vehicle: saline) was 100 % of control, the T/C (endpoint: mean survival time, dose: 8.0 mg/kg/injection, schedule: Q01DX005 (ip), vehicle: saline) was 267 % of control and the T/C (endpoint: mean survival time, dose: 8.0 mg/kg/injection, schedule: Q01DX009 (ip), vehicle: saline) was 191 % of control. The T/C (endpoint: mean survival time, dose: 8.0 mg/kg/injection, schedule: Q03HX008 (ip), vehicle: saline) was 108 % of control, the T/C (endpoint: mean survival time, dose: 8.0 mg/kg/injection, schedule: Q04DX003 (ip), vehicle: saline) was 124 % of control and the T/C (endpoint: mean survival time, dose: 9.0 mg/kg/injection, schedule: Q01DX001 (ip), vehicle: carboxymethylcellulose (CMC)) was 111 % of control. The T/C (endpoint: mean survival time, dose: 16.0 mg/kg/injection, schedule: Q01DX001 (ip), vehicle: other) was 169 % of control, the T/C (endpoint: mean survival time, dose: 16.0 mg/kg/injection, schedule: Q01DX005 (ip), vehicle: saline) was 393 % of control and the T/C (endpoint: mean survival time, dose: 16.0 mg/kg/injection, schedule: Q01DX009 (ip), vehicle: saline) was 315 % of control. The T/C (endpoint: mean survival time, dose: 16.0 mg/kg/injection, schedule: Q03HX024 (ip), vehicle: saline) was 210 % of control, the T/C (endpoint: mean survival time, dose: 16.0 mg/kg/injection, schedule: Q03HX040 (ip), vehicle: saline) was 217 % of control and the T/C (endpoint: mean survival time, dose: 16.0 mg/kg/injection, schedule: Q04DX003 (ip), vehicle: saline + alcohol) was 158 % of control and 425 % of control. The T/C (endpoint: mean survival time, dose: 16.0 mg/kg/injection, schedule: Q04DX003 (ip), vehicle: saline) was 279 % of control, the T/C (endpoint: mean survival time, dose: 22.0 mg/kg/injection, schedule: Q01DX001 (ip), vehicle: carboxymethylcellulose (CMC)) was 178 % of control and the T/C (endpoint: mean survival time, dose: 32.0 mg/kg/injection, schedule: Q01DX001 (ip), vehicle: other) was 348 % of control. The T/C (endpoint: mean survival time, dose: 32.0 mg/kg/injection, schedule: Q01DX001 (ip), vehicle: saline) was 157 % of control, the T/C (endpoint: mean survival time, dose: 32.0 mg/kg/injection, schedule: Q01DX001 (oral), vehicle: saline) was 118 % of control and the T/C (endpoint: mean survival time, dose: 32.0 mg/kg/injection, schedule: Q01DX005 (ip), vehicle: saline) was 393 % of control. The T/C (endpoint: mean survival time, dose: 32.0 mg/kg/injection, schedule: Q01DX005 (oral), vehicle: saline) was 310 % of control, the T/C (endpoint: mean survival time, dose: 32.0 mg/kg/injection, schedule: Q01DX009 (ip), vehicle: saline) was 224 % of control and the T/C (endpoint: mean survival time, dose: 32.0 mg/kg/injection, schedule: Q01DX009 (oral), vehicle: saline) was 159 % of control. For the same compound, the T/C (endpoint: mean survival time, dose: 32.0 mg/kg/injection, schedule: Q03HX008 (ip), vehicle: saline) was 191 % of control, the T/C (endpoint: mean survival time, dose: 32.0 mg/kg/injection, schedule: Q03HX024 (ip), vehicle: saline) was 421 % of control and the T/C (endpoint: mean survival time, dose: 32.0 mg/kg/injection, schedule: Q03HX040 (ip), vehicle: saline) was 432 % of control. For the same compound, the T/C (endpoint: mean survival time, dose: 32.0 mg/kg/injection, schedule: Q04DX003 (ip), vehicle: saline + alcohol) was 515 % of control, the T/C (endpoint: mean survival time, dose: 32.0 mg/kg/injection, schedule: Q04DX003 (ip), vehicle: saline) was 406 % of control and the T/C (endpoint: mean survival time, dose: 32.0 mg/kg/injection, schedule: Q04DX003 (oral), vehicle: saline) was 267 % of control. The T/C (endpoint: mean survival time, dose: 33.0 mg/kg/injection, schedule: Q01DX001 (ip), vehicle: carboxymethylcellulose (CMC)) was 208 % of control, the T/C (endpoint: mean survival time, dose: 48.0 mg/kg/injection, schedule: Q04DX003 (ip), vehicle: saline + alcohol) was 82 % of control and the T/C (endpoint: mean survival time, dose: 50.0 mg/kg/injection, schedule: Q01DX001 (ip), vehicle: carboxymethylcellulose (CMC)) was 352 % of control. For the same compound, the T/C (endpoint: mean survival time, dose: 64.0 mg/kg/injection, schedule: Q01DX001 (ip), vehicle: other) was 208 % of control, the T/C (endpoint: mean survival time, dose: 64.0 mg/kg/injection, schedule: Q01DX001 (ip), vehicle: saline) was 411 % of control and the T/C (endpoint: mean survival time, dose: 64.0 mg/kg/injection, schedule: Q01DX005 (ip), vehicle: saline) was 98 % of control. For the same compound, the T/C (endpoint: mean survival time, dose: 64.0 mg/kg/injection, schedule: Q01DX005 (oral), vehicle: saline) was 107 % of control, the T/C (endpoint: mean survival time, dose: 64.0 mg/kg/injection, schedule: Q01DX009 (ip), vehicle: saline) was 120 % of control and the T/C (endpoint: mean survival time, dose: 64.0 mg/kg/injection, schedule: Q01DX009 (oral), vehicle: saline) was 95 % of control. For the same compound, the T/C (endpoint: mean survival time, dose: 64.0 mg/kg/injection, schedule: Q03HX008 (ip), vehicle: saline) was 437 % of control, the T/C (endpoint: mean survival time, dose: 64.0 mg/kg/injection, schedule: Q03HX024 (ip), vehicle: saline) was 330 % of control and the T/C (endpoint: mean survival time, dose: 64.0 mg/kg/injection, schedule: Q03HX040 (ip), vehicle: saline) was 259 % of control. For the same compound, the T/C (endpoint: mean survival time, dose: 64.0 mg/kg/injection, schedule: Q04DX003 (ip), vehicle: saline) was 209 % of control, the T/C (endpoint: mean survival time, dose: 75.0 mg/kg/injection, schedule: Q01DX001 (ip), vehicle: carboxymethylcellulose (CMC)) was 332 % of control and the T/C (endpoint: mean survival time, dose: 128.0 mg/kg/injection, schedule: Q01DX001 (ip), vehicle: saline) was 198 % of control. The T/C (endpoint: mean survival time, dose: 128.0 mg/kg/injection, schedule: Q01DX001 (oral), vehicle: saline) was 330 % of control, the T/C (endpoint: mean survival time, dose: 128.0 mg/kg/injection, schedule: Q03HX008 (ip), vehicle: saline) was 437 % of control and the T/C (endpoint: mean survival time, dose: 128.0 mg/kg/injection, schedule: Q03HX040 (ip), vehicle: saline) was 86 % of control. The T/C (endpoint: mean survival time, dose: 128.0 mg/kg/injection, schedule: Q04DX003 (oral), vehicle: saline) was 110 % of control, the T/C (endpoint: mean survival time, dose: 256.0 mg/kg/injection, schedule: Q04DX003 (oral), vehicle: saline) was 86 % of control and the T/C (endpoint: median survival time, dose: 1.0 mg/kg/injection, schedule: Q01DX009 (ip), vehicle: Klucel (hydroxypropylcellulose) (HPC)) was 113 % of control and 106 % of control. For the same compound, the T/C (endpoint: median survival time, dose: 2.0 mg/kg/injection, schedule: Q01DX009 (ip), vehicle: Klucel (hydroxypropylcellulose) (HPC)) was 113 % of control, the T/C (endpoint: median survival time, dose: 4.0 mg/kg/injection, schedule: Q04DX003 (ip), vehicle: saline + alcohol) was 105 % of control and the T/C (endpoint: median survival time, dose: 8.0 mg/kg/injection, schedule: Q04DX003 (ip), vehicle: saline + alcohol) was 98 % of control. The T/C (endpoint: median survival time, dose: 8.4 mg/kg/injection, schedule: Q01DX001 (ip), vehicle: distilled water + Tween-80 + alcohol) was 94 % of control, the T/C (endpoint: median survival time, dose: 14.0 mg/kg/injection, schedule: Q01DX001 (ip), vehicle: distilled water + Tween-80 + alcohol) was 100 % of control and the T/C (endpoint: median survival time, dose: 14.0 mg/kg/injection, schedule: Q07DX003 (ip), vehicle: saline + alcohol) was 157 % of control. For the same compound, the T/C (endpoint: median survival time, dose: 16.0 mg/kg/injection, schedule: Q04DX003 (ip), vehicle: saline + alcohol) was 109 % of control, the T/C (endpoint: median survival time, dose: 20.0 mg/kg/injection, schedule: Q07DX003 (ip), vehicle: saline + alcohol) was 584 % of control and the T/C (endpoint: median survival time, dose: 26.0 mg/kg/injection, schedule: Q07DX003 (ip), vehicle: saline + alcohol) was 669 % of control. The T/C (endpoint: median survival time, dose: 27.0 mg/kg/injection, schedule: Q01DX001 (ip), vehicle: carboxymethylcellulose (CMC)) was 184 % of control, the T/C (endpoint: median survival time, dose: 32.0 mg/kg/injection, schedule: Q04DX003 (ip), vehicle: saline + alcohol) was 438 % of control and the T/C (endpoint: median survival time, dose: 33.0 mg/kg/injection, schedule: Q07DX003 (ip), vehicle: saline + alcohol) was 671 % of control. For the same compound, the T/C (endpoint: median survival time, dose: 40.0 mg/kg/injection, schedule: Q01DX001 (ip), vehicle: carboxymethylcellulose (CMC)) was 722 % of control, the T/C (endpoint: median survival time, dose: 40.0 mg/kg/injection, schedule: Q01DX001 (ip), vehicle: distilled water + Tween-80 + alcohol) was 154 % of control and the T/C (endpoint: median survival time, dose: 64.0 mg/kg/injection, schedule: Q01DX009 (ip), vehicle: Klucel (hydroxypropylcellulose) (HPC)) was 96 % of control and 109 % of control.

For `CCSC(CC(OC(C)=O)C(OC(C)=O)C(COC(C)=O)OC(C)=O)n1cnc2c(Cl)ncnc21` (stereo not drawn), the T/C (endpoint: mean survival time, dose: 12.5 mg/kg/injection, schedule: Q01DX005 (ip), vehicle: other) was 98 % of control, the T/C (endpoint: mean survival time, dose: 25.0 mg/kg/injection, schedule: Q01DX005 (ip), vehicle: other) was 96 % of control and the T/C (endpoint: mean survival time, dose: 50.0 mg/kg/injection, schedule: Q01DX005 (ip), vehicle: other) was 95 % of control. For the same compound, the T/C (endpoint: mean survival time, dose: 100.0 mg/kg/injection, schedule: Q01DX005 (ip), vehicle: other) was 104 % of control and the T/C (endpoint: mean survival time, dose: 200.0 mg/kg/injection, schedule: Q01DX005 (ip), vehicle: other) was 105 % of control.

With `O=C(Nc1ccccc1)c1ccccc1C1(O)c2ccccc2-c2ccccc21` the T/C (endpoint: mean survival time, dose: 100.0 mg/kg/injection, schedule: Q01DX009 (ip), vehicle: saline with Tween-80) was 88 % of control, the T/C (endpoint: mean survival time, dose: 200.0 mg/kg/injection, schedule: Q01DX009 (ip), vehicle: saline with Tween-80) was 92 % of control and the T/C (endpoint: mean survival time, dose: 400.0 mg/kg/injection, schedule: Q01DX009 (ip), vehicle: saline with Tween-80) was 91 % of control.
